Values joined by “and” are separate entries in the source; they are usually repeats but may differ in a detail not shown here. Equal values may be shown once. Toxic doses and inconclusive results are not listed.
Tested on: L1210 leukemia ip in BDF1 mice, survival T/C
Assay: NCI In Vivo Anticancer Drug Screen. Data for tumor model L1210 Leukemia (intraperitoneal) in B6D2F1 (BDF1) mice
Conditions: endpoint: mean survival time, higher = longer survival
Summary of the method: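 Tumor was transplanted into mice, which were then dosed with test compound or vehicle alone. Survival was recorded for each group, and the treated figure was expressed relative to the control figure.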

[1] = dose: 100.0 mg/kg/injection, schedule: Q01DX001 (ip), vehicle: saline
[2] = dose: 100.0 mg/kg/injection, schedule: Q01DX009 (ip), vehicle: saline with Tween-80
[3] = dose: 100.0 mg/kg/injection, schedule: Q04DX003 (ip), vehicle: saline with Tween-80
[4] = dose: 200.0 mg/kg/injection, schedule: Q01DX009 (ip), vehicle: saline with Tween-80
[5] = dose: 200.0 mg/kg/injection, schedule: Q04DX003 (ip), vehicle: saline with Tween-80
[6] = dose: 400.0 mg/kg/injection, schedule: Q01DX009 (ip), vehicle: saline with Tween-80
[7] = dose: 400.0 mg/kg/injection, schedule: Q04DX003 (ip), vehicle: saline with Tween-80
[8] = dose: 100.0 mg/kg/injection, schedule: Q01DX009 (ip), vehicle: Klucel (hydroxypropylcellulose) (HPC)
[9] = dose: 100.0 mg/kg/injection, schedule: Q04DX002 (ip), vehicle: Klucel (hydroxypropylcellulose) (HPC)
[10] = dose: 100.0 mg/kg/injection, schedule: Q04DX003 (ip), vehicle: Klucel (hydroxypropylcellulose) (HPC)
[11] = dose: 200.0 mg/kg/injection, schedule: Q01DX009 (ip), vehicle: Klucel (hydroxypropylcellulose) (HPC)
[12] = dose: 200.0 mg/kg/injection, schedule: Q04DX002 (ip), vehicle: Klucel (hydroxypropylcellulose) (HPC)
[13] = dose: 200.0 mg/kg/injection, schedule: Q04DX003 (ip), vehicle: Klucel (hydroxypropylcellulose) (HPC)
[14] = dose: 400.0 mg/kg/injection, schedule: Q01DX009 (ip), vehicle: Klucel (hydroxypropylcellulose) (HPC)
[15] = dose: 400.0 mg/kg/injection, schedule: Q04DX002 (ip), vehicle: Klucel (hydroxypropylcellulose) (HPC)
[16] = dose: 400.0 mg/kg/injection, schedule: Q04DX003 (ip), vehicle: Klucel (hydroxypropylcellulose) (HPC)

O=C1C=CC2(CCC23C=CC(=O)O3)O1 (centres undefined)
T/C (dose: 13.0 mg/kg/injection, schedule: Q01DX Z (ip), vehicle: saline): 96 % of control | T/C (dose: 20.0 mg/kg/injection, schedule: Q01DX Z (ip), vehicle: saline): 102 % of control | T/C (dose: 30.0 mg/kg/injection, schedule: Q01DX Z (ip), vehicle: saline): 104 % of control | T/C (dose: 45.0 mg/kg/injection, schedule: Q01DX Z (ip), vehicle: saline): 102 % of control and 109 % of control

CN(C(=S)Nc1ccccc1)c1cc(N2CCCC2)ccn1
T/C [1]: 98 % of control | T/C (dose: 200.0 mg/kg/injection, schedule: Q01DX001 (ip), vehicle: saline): 98 % of control

CC(C)=CCC(C#N)(CCN1CCCCC1)c1cccc2ccccc12 (centres undefined)
T/C (dose: 12.5 mg/kg/injection, schedule: Q04DX003 (ip), vehicle: Klucel (hydroxypropylcellulose) (HPC)): 99 % of control | T/C (dose: 25.0 mg/kg/injection, schedule: Q04DX003 (ip), vehicle: Klucel (hydroxypropylcellulose) (HPC)): 103 % of control | T/C (dose: 50.0 mg/kg/injection, schedule: Q04DX003 (ip), vehicle: Klucel (hydroxypropylcellulose) (HPC)): 100 % of control

COC(=O)C(CSCSC)NC(=O)/C=C/c1cc(OC)ccc1OC (centres undefined)
T/C [2]: 87 % of control | T/C [3]: 94 % of control | T/C [4]: 93 % of control | T/C [5]: 88 % of control | T/C [6]: 93 % of control | T/C [7]: 94 % of control

COC1OC(COC(=O)c2ccccc2)C(OC(=O)c2ccccc2)C1OC(=O)c1ccccc1 (centres undefined)
T/C [3]: 101 % of control | T/C [5]: 92 % of control | T/C [7]: 90 % of control

c1nc([N+]23CCC(CC2)CC3)c2[nH]cnc2n1
T/C (dose: 5.0 mg/kg/injection, schedule: Q01DX001 (ip), vehicle: saline): 111 % of control | T/C (dose: 10.0 mg/kg/injection, schedule: Q01DX001 (ip), vehicle: saline): 103 % of control | T/C (dose: 20.0 mg/kg/injection, schedule: Q01DX001 (ip), vehicle: saline): 113 % of control | T/C (dose: 40.0 mg/kg/injection, schedule: Q01DX001 (ip), vehicle: saline): 97 % of control | T/C (dose: 80.0 mg/kg/injection, schedule: Q01DX001 (ip), vehicle: saline): 108 % of control

CCOC(=O)N(OCc1ccccc1)P(=O)(N1CC1(C)C)N1CC1(C)C (centres undefined)
T/C (dose: 100.0 mg/kg/injection, schedule: Q04DX002 (ip), vehicle: saline): 158 % of control | T/C (dose: 200.0 mg/kg/injection, schedule: Q04DX002 (ip), vehicle: saline): 153 % of control

OCCNCc1ccccc1
T/C [2]: 93 % of control | T/C (dose: 100.0 mg/kg/injection, schedule: Q01DX009 (ip), vehicle: water): 95 % of control | T/C (dose: 100.0 mg/kg/injection, schedule: Q04DX003 (ip), vehicle: water): 104 % of control | T/C [4]: 102 % of control | T/C (dose: 200.0 mg/kg/injection, schedule: Q01DX009 (ip), vehicle: water): 103 % of control | T/C (dose: 200.0 mg/kg/injection, schedule: Q04DX003 (ip), vehicle: water): 102 % of control | T/C [6]: 86 % of control | T/C (dose: 400.0 mg/kg/injection, schedule: Q01DX009 (ip), vehicle: water): 105 % of control | T/C (dose: 400.0 mg/kg/injection, schedule: Q04DX003 (ip), vehicle: water): 102 % of control

CN(Cc1cnc2nc(N)c([N+](=O)[O-])c(N)c2n1)c1ccc(C(=O)NC(CCC(=O)O)C(=O)O)cc1 (centres undefined)
T/C (dose: 100.0 mg/kg/injection, schedule: Q04DX002 (ip), vehicle: sodium bicarbonate): 89 % of control | T/C (dose: 200.0 mg/kg/injection, schedule: Q04DX002 (ip), vehicle: sodium bicarbonate): 99 % of control

CC(O)c1cccc(NC(=O)Nc2cccc(C(F)(F)F)c2)c1 (centres undefined)
T/C (dose: 100.0 mg/kg/injection, schedule: Q01DX001 (ip), vehicle: Klucel (hydroxypropylcellulose) (HPC)): 104 % of control | T/C [8]: 100 % of control and 109 % of control | T/C [9]: 110 % of control and 111 % of control | T/C [10]: 99 % of control | T/C (dose: 200.0 mg/kg/injection, schedule: Q01DX001 (ip), vehicle: Klucel (hydroxypropylcellulose) (HPC)): 98 % of control | T/C [11]: 107 % of control and 116 % of control | T/C [12]: 108 % of control | T/C [13]: 95 % of control | T/C (dose: 400.0 mg/kg/injection, schedule: Q01DX001 (ip), vehicle: Klucel (hydroxypropylcellulose) (HPC)): 98 % of control | T/C [14]: 101 % of control and 89 % of control | T/C [15]: 112 % of control and 115 % of control | T/C [16]: 103 % of control

CC(C)(C)C1=NN=C(C(C)(C)C)CSC1
T/C [8]: 95 % of control and 100 % of control | T/C [9]: 98 % of control and 103 % of control | T/C [10]: 101 % of control | T/C [11]: 101 % of control and 113 % of control | T/C [12]: 103 % of control and 105 % of control | T/C [13]: 97 % of control | T/C [14]: 101 % of control and 92 % of control | T/C [15]: 98 % of control and 105 % of control | T/C [16]: 95 % of control

Nc1nc(-c2cccs2)cc(C(F)(F)F)n1
T/C [10]: 94 % of control | T/C [13]: 94 % of control | T/C [16]: 102 % of control

NC(N)=N/N=C(\C=N\N=C(N)N)c1ccc(-c2ccc(C(/C=N/N=C(N)N)=N\N=C(N)N)cc2)cc1
T/C (dose: 15.0 mg/kg/injection, schedule: Q01DX Z (oral), vehicle: saline): 102 % of control | T/C (dose: 30.0 mg/kg/injection, schedule: Q01DX Z (oral), vehicle: saline): 96 % of control | T/C (dose: 60.0 mg/kg/injection, schedule: Q01DX Z (oral), vehicle: saline): 98 % of control | T/C (dose: 120.0 mg/kg/injection, schedule: Q01DX Z (oral), vehicle: saline): 100 % of control

CC(C)=CCSc1ncnc2nc[nH]c12
T/C (dose: 31.0 mg/kg/injection, schedule: Q01DX Z (ip), vehicle: other): 91 % of control | T/C (dose: 62.0 mg/kg/injection, schedule: Q01DX Z (ip), vehicle: other): 117 % of control | T/C (dose: 125.0 mg/kg/injection, schedule: Q01DX Z (ip), vehicle: other): 103 % of control | T/C (dose: 250.0 mg/kg/injection, schedule: Q01DX Z (ip), vehicle: other): 109 % of control

[Cl][Fe]([Cl])[Cl]
T/C (dose: 12.5 mg/kg/injection, schedule: Q01DX009 (ip), vehicle: saline with Tween-80): 98 % of control | T/C (dose: 25.0 mg/kg/injection, schedule: Q01DX009 (ip), vehicle: saline with Tween-80): 94 % of control | T/C (dose: 75.0 mg/kg/injection, schedule: Q01DX001 (ip), vehicle: saline): 96 % of control | T/C [3]: 93 % of control | T/C (dose: 150.0 mg/kg/injection, schedule: Q01DX001 (ip), vehicle: saline): 93 % of control | T/C [5]: 94 % of control | T/C (dose: 300.0 mg/kg/injection, schedule: Q01DX001 (ip), vehicle: saline): 98 % of control | T/C [7]: 105 % of control

Cc1cc(N(CCOS(C)(=O)=O)CCOS(C)(=O)=O)ccc1C=Nc1cc(Cl)c(O)c(Cl)c1
T/C (dose: 20.0 mg/kg/injection, schedule: Q04DX003 (ip), vehicle: Klucel (hydroxypropylcellulose) (HPC)): 121 % of control | T/C (dose: 40.0 mg/kg/injection, schedule: Q04DX003 (ip), vehicle: Klucel (hydroxypropylcellulose) (HPC)): 118 % of control | T/C (dose: 80.0 mg/kg/injection, schedule: Q04DX003 (ip), vehicle: Klucel (hydroxypropylcellulose) (HPC)): 100 % of control

CC(O)COc1ccc(OCc2ccccc2)cc1 (centres undefined)
T/C [8]: 98 % of control | T/C [10]: 106 % of control | T/C [11]: 95 % of control | T/C [13]: 100 % of control | T/C [14]: 97 % of control | T/C [16]: 92 % of control

CC(C)c1ccccc1OC(=O)NC1CCCCC1
T/C [9]: 96 % of control | T/C [12]: 110 % of control | T/C [15]: 104 % of control

O=S(=O)(O)C(I)I
T/C (dose: 6.25 mg/kg/injection, schedule: Q01DX001 (ip), vehicle: saline): 103 % of control | T/C (dose: 12.5 mg/kg/injection, schedule: Q01DX001 (ip), vehicle: saline): 100 % of control | T/C (dose: 25.0 mg/kg/injection, schedule: Q01DX001 (ip), vehicle: saline): 98 % of control and 100 % of control | T/C [1]: 103 % of control

O=C(NC(CSC(=O)c1ccccc1)C(=O)O)OCc1ccccc1 (centres undefined)
T/C [8]: 104 % of control | T/C [10]: 101 % of control | T/C [11]: 93 % of control | T/C [13]: 95 % of control | T/C [16]: 95 % of control

CCCCc1ccc(-n2c(C)c(COC(=O)NC)c(COC(=O)NC)c2C)cc1
T/C (dose: 3.12 mg/kg/injection, schedule: Q01DX009 (ip), vehicle: Klucel (hydroxypropylcellulose) (HPC)): 122 % of control | T/C (dose: 6.25 mg/kg/injection, schedule: Q01DX009 (ip), vehicle: Klucel (hydroxypropylcellulose) (HPC)): 122 % of control
